What was measured:
[1] = test system: AdipoR1 mRNA; experiment: AdipoR1 mRNA in skeletal muscle of STZ-treated mice (real-time PCR); format: in vivo; settings: FIG. 2C
Description: (§1) STZ Treatments Diabetes was induced by a double intraperitoneal injection of 0.2-0.3 ml of 50 mM sodium citrate solution (pH 4.5) containing STZ (200 mg/kg body weight). Control (non-STZ) mice were injected with 50 mM sodium citrate solution (pH 4.5). Three days after injection, plasma glucose levels were checked and diabetes was confirmed (glucose level >250 mg/dl). A combination of human regular insulin (1 units/kg; Eli Lilly, Indianapolis, Ind.), each given in 0.2 ml of saline was administered to the STZ+ insulin group. The mice in the STZ+ vehicle and non-STZ groups received 0.2 ml of saline injected both intraperitoneally. After injection of INS or saline, the animals were fasted for 6 h and then hindlim's skeletal muscles were removed.
(§2) Quantitative analysis of AdipoR1 and R2 transcripts by Northern blot and Real-time PCR Total RNA was prepared from cells or tissues with TRIzol (GIBCO/BRL) according to the manufacturer's instructions. For quantification of AdipoRs mRNAs, we employed the real-time PCR method (14). The primer sets and the probes for mAdipoR1,2 were as follows; the forward primer for mAdipoR1 was […], the reverse primer, […] and the probe, […]; the forward primer for mAdipoR2 was […], the reverse primer, […] and the probe, […]. The relative amount of each AdipoR transcript was normalized to the amount of actin transcript in the same cDNA (14).

[2] = test system: AdipoR2 mRNA; experiment: AdipoR2 mRNA in skeletal muscle of STZ-treated mice (real-time PCR); format: in vivo; settings: FIG. 2D
Description: as §1, §2

[3] = Plasma insulin and plasma glucose in STZ-treated mice without or with insulin; format: in vivo
Description: Animals Fifteen-week-old ob/ob mice and their wild-type C57BL/6 mice were obtained from CharlesRiver Breeding Laboratories (Wilmington, Mass.). Male mice were housed in colony cages, maintained on a 12-h light/12-h dark cycle. Our high-fat diet contains oil 1152 g (from Benibana, Japan; safflower oil [high-oleic type] contained 46% oleic acid (18:1n-9) and 45% linoleic acid (18:2n-6) from total fatty acids), casein 1191.6 g (Oriental Yeast, Tokyo, Japan, No.19), sucrose 633.6 g (Oriental Yeast, No. 13), vitamin mix 50.4 g (Oriental Yeast, No. 20 (AIN76), mineral mix 352.8 g (Oriental Yeast, No.25 (AIN76), cellulose powder 201.6 g (Oriental Yeast, No.19), DL-methionine 18 g (Wako Pure Chemicals, Osaka, Japan), water 360 ml; total 3600 g (20). Plasma insulin was measured by an insulin immunoassay (Shibayagi, Gunma, Japan). The animal care and procedures were approved by the Animal Care Committee of the University of Tokyo.
as §1

[4] = test system: membrane fractions of skeletal muscle; experiment: [125I]adiponectin binding assay on membrane fractions of skeletal muscle; settings: wild-type vs ob/ob mice; FIGS. 5A, 5B
Description: Binding Assay Synthetic adiponectin was ^125I-labeled at Tyr by IODO-beads (Pierce) in the presence of Na^125I (2,000 Ci/mmol, Amersham Pharmacia Biotech) according to the manufacturer's protocol. Membrane fractions of muscles were incubated at 4° C. for 1 hr with binding buffer (ice-cold phosphate-buffered saline/0.1% bovine serum albumin) containing designated concentrations of [^125I]adiponectin (5,000 cpm/ng protein) plus unlabeled competitors. […] The cells were then washed three times with ice-cold phosphate-buffered saline, lysed in 0.1 N NaOH/0.1% SDS, and the cell-bound radioactivity was determined using a γ-counter (14). Nonspecific binding was determined using a 200-fold excess of unlabeled adiponectin. Specific binding was calculated by subtracting nonspecific binding from the total binding. The values presented in the “Results” represent an average of triplicate determinations of 3-10 experiments.

[5] = test system: AMPK; experiment: Adiponectin tolerance test: AMPK phosphorylation in skeletal muscle (Western blot); format: in vivo, mice; settings: 50 μg/10 g body weight, 5 min, FIGS. 5C, 5D
Description: Generation of recombinant adiponectin, adiponectin tolerance test and Western blot analysis Bacterially expressed murine full-length adiponectin (Ad) was generated as previously described (10, 14). […] Skeletal muscles were isolated 5 min after adiponectin injection. Phosphorylation and amount of AMPK in keletal muscles were determined (10, 14).

[6] = skeletal muscle of STZ-treated mice
[7] = skeletal muscle, STZ-treated mice given insulin

CN(N=O)C(=O)N[C@H]1C(O)O[C@H](CO)[C@@H](O)[C@@H]1O (mixture of isomers) [STZ, streptozotocin]
increase in AdipoR1 mRNA [1, 6]: 103%
increase in AdipoR2 mRNA [2, 6]: 38%
plasma insulin ([3]; STZ 200 mg/kg intraperitoneal, mice fasted 6 h, FIG. 2A): abolished
plasma glucose ([3]; STZ-treated vs control mice, fasted 6 h, FIG. 2B lanes 1, 2): significant marked increase

insulin: human regular insulin (Eli Lilly) in vivo; insulin added to hepatocytes and C2C12 myocytes in vitro
AdipoR1 mRNA after insulin treatment [1, 7]: restored nearly completely
AdipoR2 mRNA after insulin treatment [2, 7]: restored nearly completely
plasma glucose levels ([3]; STZ plus insulin (1 units/kg) compared with STZ alone, FIG. 2B lanes 2, 3): reduced

B1: adiponectin: bacterially expressed murine full-length adiponectin; 125I-labeled adiponectin (globular or full-length) in the binding assay (protein)
chain: EDDVTTTEELAPALVPPPKGTCAGWMAGIPGHPGHNGTPGRDGRDGTPGEKGEKGDAGLLGPKGETGDVGMTGAEGPRGFPGTPGRKGEPGEAAYVYRSAFSVGLETRVTVPNVPIRFTKIFYNQQNHYDGSTGKFYCNIPGLYYFSYHITVYMKDVKVSLFKKDKAVLFTYDQYQEKNVDQASGSVLLHLEVGDQVWLQVYGDGDHNGLYADNVNDSTFTGFLLYHDTN
adiponectin binding to the membrane fractions of skeletal muscle [4]: higher binding to the membrane fractions of skeletal muscle of wild-type mice than ob/ob mice
AMPK activation in skeletal muscle ([5]; ob/ob mice (implied)): unable to activate AMPK
AMPK activation in skeletal muscle ([5]; wild-type mice): able to activate AMPK
